# Test results from US10905702B2 (priority 2016, dated 2021).
# Where two headings read alike, the source gives them in different places.
# How the values were obtained:
# recombinant human Gal3 = molecular target: T1, recombinant human Gal3 (Homo sapiens, UniProt P17931); test: Inhibition of hGal3 binding to asialofetuin (microtiter plate); details: biotinylated rhGal3 5 ug/ml pre-mixed with inhibitor; TDG 5 mM; Lac 50 mM; FIG. 12
# T1 construct: made in house; host or cells: Escherichia coli BL21 (DE3)
# T1 sequence (P17931 whole entry): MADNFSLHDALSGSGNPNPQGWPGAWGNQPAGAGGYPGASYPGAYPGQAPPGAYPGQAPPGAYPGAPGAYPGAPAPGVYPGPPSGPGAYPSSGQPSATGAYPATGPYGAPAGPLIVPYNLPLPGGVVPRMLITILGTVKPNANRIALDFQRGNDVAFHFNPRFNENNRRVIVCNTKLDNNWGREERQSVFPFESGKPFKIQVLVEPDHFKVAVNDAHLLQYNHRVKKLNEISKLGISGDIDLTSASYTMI
# Protocol: Ninety-six well microtiter plates were coated with 1 ug/well of asialofetuin (10 μg/ml in PBS, 100 ul each well) for 3 h at 37° C., washed and blocked with 3% BSA in PBS overnight at 4° C. […] The reaction was stopped with 1 M HCl and the optical density (OD) at 450 nm from each well was measured by SpectraMax 340 plate reader (Molecular Device).
# [1] = molecular target: T2, rhGal3 binding onto A549 cells (Homo sapiens, UniProt P17931); test: Flow cytometry of rhGal3 binding to A549 cells and its inhibition; assay type: cell-based
# T2 construct: made in house; host or cells: Escherichia coli BL21 (DE3)
# T2 sequence (P17931 whole entry): as above
# [2] = test system: SOCS1, SOCS3, SOCS4 expression in A549 cells; test: SOCS expression in A549 cells incubated with rhGal3 with or without TDG (quantitative realtime PCR); assay type: cell-based, human
# Protocol: A549 cells were grown in 12-well plates and incubated with 0˜30 μg/ml of rhGal3 for 1 hour. After washing, RNA was extracted from the cells and subjected to reverse-transcription, followed by quantitative realtime PCR with designed primers for SOCS1, SOCS3, SOCS4, and beta-actin. Ct values were calculated and the relative expression level was calculated as 2^(Ct actin−Ct target).
# SOCS1 = assay type: cell-based, human; details: 15 μg/ml, 1 h
# RIG1 = assay type: cell-based, human
# [3] = test system: ERK, AKT, p38 MAPK, STAT1 and NF-κB phosphorylation in A549 cells; assay type: cell-based, human
# A549 cells = assay type: cell-based, human; details: for extracellular cytokine levels: A549 cells, treatment alone vs untreated cells, FIG. 7
# [4] = hGal3 10 μg/ml pre-mixed with 0~10 mM disaccharide
# [5] = NeuK-treated A549 cells, 15 μg/ml
# [6] = A549 cells pre-exposed to NeuK, 15 μg/ml
# [7] = A549 cells, treatment alone, vs control
molecule,measurement,setting,value
"OC[C@H]1O[C@@H](S[C@@H]2O[C@H](CO)[C@H](O)[C@H](O)[C@H]2O)[C@H](O)[C@@H](O)[C@H]1O [TDG, thiodigalactoside]",inhibition of rhGal3 binding to asialofetuin (OD 450 nm),recombinant human Gal3,partially inhibit
same,inhibition of hGal3 binding onto A549 cells (MFI),[1]; [4],inhibit the binding
same,inhibition of hGal3 binding onto A549 cells (MFI),"[1]; hGal3 pre-mixed with Lac 50 mM, TDG 50 mM or 10 mM",inhibit binding well
same,"SOCS expression (SOCS1, SOCS3, SOCS4)","[2]; 30 μg rhGal3 pre-mixed with TDG 50 mM, one hour, FIG. 17",offset all the galectin's effect in suppressing SOCS expression
same,SOCS expression,"[2]; disaccharide (TDG 50 mM) alone, one hour",some positive effect in SOCS expression
rhGal1: recombinant human galectin-1,SOCS1 expression,SOCS1; A549 cells pre-treated with NeuK,returned to the control levels
same,"SOCS1 expression, decrease",SOCS1; untreated A549 cells,20-30%
same,"RIG1 expression, increase","RIG1; NeuK-pretreated A549 cells, 15 μg/ml",about 12 fold
same,"RIG1 expression, decreased to","RIG1; exposure alone, A549 cells, 15 μg/ml",about 50 % of the unexposed control
same,phosphorylation level of ERK,[3]; [5],increased
same,phosphorylation level of STAT1,[3]; [5],increased
same,phosphorylation level of p38,[3]; [5],remained at the level of the NeuK-treated A549 control
same,"phosphorylation level of AKT, decreased to","[3]; untreated A549 cells, 15 μg/ml",50 % of the control level
same,"IL-6 level in culture supernatant, increase",A549 cells; [6],4 fold
same,"IL-8 level in culture supernatant, increase",A549 cells; [6],5 fold
same,"IL-15 level in culture supernatant, increase",A549 cells; [6],25 fold
same,extracellular cytokine levels,A549 cells,"the levels of IFNγ, IL-6, IL-8, and IL-10 increased"
rhGal3: recombinant human galectin-3,"SOCS expression (SOCS1, SOCS3, SOCS4)","[2]; 0~30 μg/ml rhGal3, 1 hour, FIG. 16",suppress SOCS expression in dose-dependent manner
same,"SOCS1 expression, downregulated",SOCS1; untreated or NeuK-treated A549 cells,60-70 % of the control levels
same,"RIG1 expression, downregulated to","RIG1; NeuK treatment followed by exposure, 15 μg/ml",about 20 % of the unexposed controls
same,"RIG1 expression, increase","RIG1; treatment alone, A549 cells",about 4 fold
same,phosphorylation level of AKT,[3]; [7],up to 4 fold
same,phosphorylation level of ERK,[3]; [7],increased
same,phosphorylation level of STAT1,[3]; [7],increased
same,phosphorylation level of p38,[3]; [7],remained unchanged
same,"phosphorylation of p38, decrease",[3]; NeuK-treated A549 cells compared with effect on untreated cells,more than 50%
same,phosphorylation level of AKT,[3]; [5],1.5 fold
same,phosphorylation level of ERK,[3]; [5],3 fold
same,"IL-1β, IL-10 and IL-12 levels in culture supernatant",A549 cells; [6],had no effect
same,"IL-6 level in culture supernatant, increase",A549 cells; [6],8 fold
same,"IL-8 level in culture supernatant, increase",A549 cells; [6],15 fold
same,"IL-15 level in culture supernatant, increase",A549 cells; [6],20 fold
same,extracellular cytokine levels,A549 cells,"increased levels of IFNγ, TNFα, IL-10, IL-6, and IL-8"
"CC(=O)N[C@H]1C(O)O[C@H](CO)[C@H](O)[C@@H]1O[C@@H]1O[C@H](CO)[C@H](O)[C@H](O)[C@H]1O (stereo partly shown) [TF disaccharides, Galβ1,3GalNAc]",inhibition of hGal3 binding onto A549 cells (MFI),[1]; [4],inhibit the binding
